Experimental data taken from patent US12144834B2, “Methods and compositions for treating gastrointestinal and inflammatory disorders” (Xbiome Inc., priority 2018, dated 2024).
Values after ≈ are worked out from the molar mass of the structure shown. Read-outs that look alike come from different tables or passages of the source.

Key:
[1] = test system: BTH01; assay: Phenotypic antibiotic susceptibility (MIC), research cell bank; assay type: cell-based, Bacteroides thetaiotaomicron; details: for MIC: Bacteroides thetaiotaomicron, read-out: Determined MIC; for MIC Interpretation: against BTH01
[2] = test system: RHO01; assay: Phenotypic antibiotic susceptibility (MIC, Etests), research cell bank; assay type: cell-based, Roseburia hominis; details: for MIC: Roseburia hominis, read-out: Determined MIC; for MIC Interpretation: against RHO01
[3] = test system: EHA01; assay: as above; assay type: cell-based, Eubacterium hallii; details: for MIC: Anaerobutyricum hallii, read-out: Determined MIC; for MIC Interpretation: against EHA01

Row | SMILES | MIC ([1]; against BTH01, agar dilution) [µg/mL] | MIC Interpretation [1] | MIC ([2]; against RHO01, Etests) [µg/mL] | MIC Interpretation [2] | MIC ([3]; against EHA01, Etests) [µg/mL] | MIC Interpretation [3] | MIC [1] [µg/mL] | MIC [2] [µg/mL] | MIC [3] [µg/mL]
1 | CC1(C)S[C@@H]2[C@H](NC(=O)[C@H](N)c3ccccc3)C(=O)N2[C@H]1C(=O)O [Ampicillin] | 32 (≈ 91.6 µM) | R | ≤ 0.016 | S | 0.06 (≈ 0.172 µM) | S |  |  | 
2 | CO[C@@]1(NC(=O)C2SC(=C(C(N)=O)C(=O)O)S2)C(=O)N2C(C(=O)O)=C(CSc3nnnn3C)CS[C@@H]21 (some centres unmarked) [Cefotetan] | 256 (≈ 445 µM) | R |  |  |  |  |  |  | 
3 | CCC[C@@H]1C[C@@H](C(=O)N[C@@H]([C@H]2O[C@H](SC)[C@H](O)[C@@H](O)[C@H]2O)[C@H](C)Cl)N(C)C1 [Clindamycin] | > 32 | R | ≤ 0.016 | S | 0.03 (≈ 0.0706 µM) | S |  |  | 
4 | C[C@@H](O)[C@H]1C(=O)N2C(C(=O)O)=C(SCCN=CN)C[C@H]12 [Imipenem] | 0.5 (≈ 1.67 µM) | S | 0.12 (≈ 0.401 µM) | S | 0.008 (≈ 0.0267 µM) | S |  |  | 
5 | Cc1ncc([N+](=O)[O-])n1CCO [Metronidazole] | 2 (≈ 11.7 µM) | S | 0.03 (≈ 0.175 µM) | S | 0.06 (≈ 0.351 µM) | S |  |  | 
6 | COc1c(N2C[C@@H]3CCCN[C@@H]3C2)c(F)cc2c(=O)c(C(=O)O)cn(C3CC3)c12 [Moxifloxacin] | 2 (≈ 4.98 µM) | S | 32 (≈ 79.7 µM) | R | 2 (≈ 4.98 µM) | S |  |  | 
7 | CN[C@H](CC(C)C)C(=O)N[C@H]1C(=O)N[C@@H](CC(N)=O)C(=O)N[C@H]2C(=O)N[C@H]3C(=O)N[C@H](C(=O)N[C@H](C(=O)O)c4cc(O)cc(O)c4-c4cc3ccc4O)[C@H](O)c3ccc(c(Cl)c3)Oc3cc2cc(c3O[C@@H]2O[C@H](CO)[C@@H](O)[C@H](O)[C@H]2O[C@H]2C[C@](C)(N)[C@H](O)[C@H](C)O2)Oc2ccc(cc2Cl)[C@H]1O [Vancomycin] |  |  |  |  |  |  | 64 (≈ 44.2 µM) | 0.25 (≈ 0.173 µM) | 0.12 (≈ 0.0828 µM)
